What was measured:
[1] = system: SASP factors; experiment: qPCR of SASP and PTGS mRNAs in non-senescent cells treated with eicosanoids; type: cell-based, human; details: 10 μM, for PGJ2 and 15d-PGJ2 most factors except VEGF and PDGF
Experimental: RNA was extracted from cells or tissues using commercially available kits (Isolate II—Bioline for cells; Direct-zol—Zymo for tissues) according to the manufacturer's instructions. cDNA synthesis was performed using a High Capacity cDNA Reverse Transcription Kit (Thermo Fisher) according to the manufacturer's instructions. Quantitative PCR was performed on a LightCycler 480 II (Roche) using primers and probes designed for the Universal Probe Library. Primers and probes used for human transcripts were ACTB: 5′-CCAACCGCGAGAAGATGA (SEQ ID NO:1), 5′-TCCATCACGATGCCAGTG (SEQ ID NO:2), Probe #64; TUBA: 5′-cttcgtctccgccatcag (SEQ ID NO:3), 5′-ttgccaatctggacacca (SEQ ID NO:4), Probe #58; ALOX5: 5′-[…] (SEQ ID NO:5), 5′-[…] (SEQ ID NO:6), Probe #64; ALOX5AP: 5′-ggtctgcggggctacttt (SEQ ID NO:7), 5′-[…] (SEQ ID NO:8), Probe #18; ALOX12: 5′-[…] (SEQ ID NO:9), 5′-agccaggtcgtcaggag (SEQ ID NO:10), Probe #32; ALOX15: 5′-[…] (SEQ ID NO:11), 5′-[…] (SEQ ID NO:12), Probe #76; ALOX15B: 5′-[…] (SEQ ID NO:13), 5′-actgggaggcgaagaagg (SEQ ID NO:14), Probe #51; AKR1C1: 5′-catgcctgtcctgggattt (SEQ ID NO:15), 5′-[…] (SEQ ID NO:16), Probe #49; AKR1C2: 5′-ctatgcgcctgcagaggt (SEQ ID NO:17), 5′-[…] (SEQ ID NO:18), Probe #31; AKR1C3: 5′-[…] (SEQ ID NO:19), 5′-[…] (SEQ ID NO:20), Probe #78; CYSLTR2: 5′-[…] (SEQ ID NO:21), 5′-[…] (SEQ ID NO:22), Probe #18; DPEP1: 5′-gacgtcctgaggctggtg (SEQ ID NO:23), 5′-[…] (SEQ ID NO:24), Probe #9 (SEQ ID NO:25), ELOVL2: 5′-[…] (SEQ ID NO:26), 5′-[…] (SEQ ID NO:27), Probe #53; ELOVL4: 5′-catttggcccatggattc (SEQ ID NO:28), 5′-[…] (SEQ ID NO:29), Probe #31; ELOVL5: 5′-cccttccatgcgtccata (SEQ ID NO:30), 5′-[…] (SEQ ID NO:31), Probe #31; EPHX2: 5′-ttctgctggacaccctgaa (SEQ ID NO:32), 5′-[…] (SEQ ID NO:33), Probe #45; GPX4: 5′-ttcccgtgtaaccagttcg (SEQ ID NO:34), 5′-[…] (SEQ ID NO:35), Probe #36; LTA4H: 5′-ctgctctcacggtccagtc (SEQ ID NO:36), 5′-[…] (SEQ ID NO:37), Probe #64; LTBR2: 5′-[…] (SEQ ID NO:38), 5′-[…] (SEQ ID NO:39), Probe #33; LTC4S: 5′-[…] (SEQ ID NO:40), 5′-[…] (SEQ ID NO:41), Probe #18; PTGDS: 5′-[…] (SEQ ID NO:42), 5′-[…] […]

[2] = system: IMR-90 fibroblasts; experiment: Induction of senescence in non-senescent cells by prostaglandins or 5-LOX pathway products (EdU, SA-B-gal, p21, immunoblot); type: cell-based, human; details: 10 μM, 10 days
Experimental: RNA was extracted from cells or tissues using commercially available kits (Isolate II—Bioline for cells; Direct-zol—Zymo for tissues) according to the manufacturer's instructions. cDNA synthesis was performed using a High Capacity cDNA Reverse Transcription Kit (Thermo Fisher) according to the manufacturer's instructions. Quantitative PCR was performed on a LightCycler 480 II (Roche) using primers and probes designed for the Universal Probe Library. Primers and probes used for human transcripts were ACTB: 5′-CCAACCGCGAGAAGATGA (SEQ ID NO:1), 5′-TCCATCACGATGCCAGTG (SEQ ID NO:2), Probe #64; TUBA: 5′-cttcgtctccgccatcag (SEQ ID NO:3), 5′-ttgccaatctggacacca (SEQ ID NO:4), Probe #58; ALOX5: 5′-[…] (SEQ ID NO:5), 5′-[…] (SEQ ID NO:6), Probe #64; ALOX5AP: 5′-ggtctgcggggctacttt (SEQ ID NO:7), 5′-[…] (SEQ ID NO:8), Probe #18; ALOX12: 5′-[…] (SEQ ID NO:9), 5′-agccaggtcgtcaggag (SEQ ID NO:10), Probe #32; ALOX15: 5′-[…] (SEQ ID NO:11), 5′-[…] (SEQ ID NO:12), Probe #76; ALOX15B: 5′-[…] (SEQ ID NO:13), 5′-actgggaggcgaagaagg (SEQ ID NO:14), Probe #51; AKR1C1: 5′-catgcctgtcctgggattt (SEQ ID NO:15), 5′-[…] (SEQ ID NO:16), Probe #49; AKR1C2: 5′-ctatgcgcctgcagaggt (SEQ ID NO:17), 5′-[…] (SEQ ID NO:18), Probe #31; AKR1C3: 5′-[…] (SEQ ID NO:19), 5′-[…] (SEQ ID NO:20), Probe #78; CYSLTR2: 5′-[…] (SEQ ID NO:21), 5′-[…] (SEQ ID NO:22), Probe #18; DPEP1: 5′-gacgtcctgaggctggtg (SEQ ID NO:23), 5′-[…] (SEQ ID NO:24), Probe #9 (SEQ ID NO:25), ELOVL2: 5′-[…] (SEQ ID NO:26), 5′-[…] (SEQ ID NO:27), Probe #53; ELOVL4: 5′-catttggcccatggattc (SEQ ID NO:28), 5′-[…] (SEQ ID NO:29), Probe #31; ELOVL5: 5′-cccttccatgcgtccata (SEQ ID NO:30), 5′-[…] (SEQ ID NO:31), Probe #31; EPHX2: 5′-ttctgctggacaccctgaa (SEQ ID NO:32), 5′-[…] (SEQ ID NO:33), Probe #45; GPX4: 5′-ttcccgtgtaaccagttcg (SEQ ID NO:34), 5′-[…] (SEQ ID NO:35), Probe #36; LTA4H: 5′-ctgctctcacggtccagtc (SEQ ID NO:36), 5′-[…] (SEQ ID NO:37), Probe #64; LTBR2: 5′-[…] (SEQ ID NO:38), 5′-[…] (SEQ ID NO:39), Probe #33; LTC4S: 5′-[…] (SEQ ID NO:40), 5′-[…] (SEQ ID NO:41), Probe #18; PTGDS: 5′-[…] (SEQ ID NO:42), 5′-[…] (SEQ ID NO:43), Probe #36; PTGES: 5′-agagatgcctgcccacag (SEQ ID NO:44), 5′-tggccaccacgtacatctt (SEQ ID NO:45), Probe #4; PTGES2: 5′-[…] (SEQ ID NO:46), 5′-[…] (SEQ ID NO:47), Probe #49; PTGES3 (SEQ ID NO:48), 5′-[…] (SEQ ID NO:49), 5′-[…] (SEQ ID NO:50), Probe #48; PTGIS: 5′-[…] (SEQ ID NO:51), 5′-[…] (SEQ ID NO:52), Probe #45; PTGR1: 5′-atgatggggcagcaagtg (SEQ ID NO:53), 5′-cccatcagaaatggagtgc (SEQ ID NO:54), Probe #64; PTGS1: 5′-[…] (SEQ ID NO:55), 5′-gtggtggtccatgttcctg (SEQ ID NO:56), Probe #81; PTGS2: 5′-gatccccagggctcaaac (SEQ ID NO:57), 5′-[…] (SEQ ID NO:58), Probe #61; TBXAS1: 5′-[…] (SEQ ID NO:59), 5′-tgcctcccgtgtgaatct (SEQ ID NO:60), Probe #73; AREG: 5′-[…] (SEQ ID NO:61), 5′-[…] (SEQ ID NO:62), Probe #73; CCL2: 5′-AGTCTCTGCCGCCCTTCT (SEQ ID NO:63), 5′-GTGACTGGGGCATTGATTG (SEQ ID NO:64), Probe #40; CCL27: 5′-[…] (SEQ ID NO:65), 5′-gctgggtggcagtaggaat (SEQ ID NO:66), Probe #18; CXCL1: 5′-[…] (SEQ ID NO:67), 5′-[…] (SEQ ID NO:68), Probe #52; HGF: 5′-[…] (SEQ ID NO:69), 5′-[…] (SEQ ID NO:70), Probe #49; ILIA: 5′-[…] (SEQ ID NO:71), 5′-[…] (SEQ ID NO:72), Probe #6; IL1B: 5′-[…] (SEQ ID NO:73), 5′-[…] (SEQ ID NO:74), Probe #78; IL6: 5′-[…] (SEQ ID NO:75), 5′-gaaggcagcaggcaacac (SEQ ID NO:76), Probe #45; IL8: 5′-[…] (SEQ ID NO:77), 5′-atggttccttccggtggt (SEQ ID NO:78), Probe #72; IL10: 5′-[…] (SEQ ID NO:79), 5′-[…] (SEQ ID NO:80), Probe #67; MMP3: 5′-[…] (SEQ ID NO:81), 5′-[…] (SEQ ID NO:82), Probe #36; PDGFA: 5′-[…] (SEQ ID NO:83), 5′-[…] (SEQ ID NO:84), Probe #80; VEGF: 5′-[…] (SEQ ID NO:85), 5′-[…] (SEQ ID NO:86), Probe #50; P21WAF1(CDKN1A): 5′-[…]

## CCCCC/C=C/C=C1/C(=O)C=C[C@@H]1C/C=C\CCCC(=O)O [15d-PGJ2]
[1]
  SASP factor mRNAs: strongly induced
[2]
  p21 gene expression: induced
  senescence-associated beta-galactosidase: induced
[2]; immunoblot
  p21 protein accumulation: induced
